Read-outs that look alike come from different tables or passages of the source.

For one test, the system named is SK-MEL-28 cells. In words: Inhibitory effect of cancer cell proliferation, MTT. In kind it is cell-based. The following applies: Homo sapiens. Here is the method:
The compounds prepared in the above Examples were evaluated for the inhibitory effect of cancer cell proliferation according to the method described in the following Test Example.
SK-MEL-28 cells derived from human melanoma were used, and the concentration (cell growth inhibitory concentration, IC50) at which cell growth was inhibited to 50% was measured using MTT reagent (3-(4,5-dimethylthiazole-2-yl)-2,5-[…] bromide) to confirm the inhibitory effect of cancer cell proliferation of the drugs synthesized in Examples 1 to 84.
First, SK-MEL-28 cells were cultured in 96-well plates at a cell number of about 1,250 in RPMI-1640 medium containing 11.1 mM glucose and 10% calf blood serum or 0.75 mM glucose and 10% calf blood serum, and were cultured for 16 hours. […] After treatment of the compound, MTT was added to the culture medium to confirm living cells and further cultured for 2 hours. The resulting formazane crystal was dissolved using dimethyl sulfoxide, and the absorbance of the solution was measured at 555 nm. After culturing for 72 hours, the number of viable cells in the well plate treated with the compounds synthesized in the Examples relative to the number of cells cultured in the well plate without treatment of the compounds was expressed as cell viability (%) according to each treatment concentration. By using this, a cell viability curve graph was prepared, and the inhibitory effect of cancer cell proliferation was confirmed by calculating the concentration of the compound whose growth was inhibited to 50% (IC50).

In test [1] the test system is A549 cell lines (lung cancer cell lines). Put plainly: Oxygen Consumption Rate (OCR) of cells, corrected for cell viability (Cyquant). The test is classed as cell-based. The following applies: Homo sapiens, read-out: OCR IC50. Here is the method:
The compounds synthesized by the methods disclosed in the Examples of the present invention have been measured on oxygen consumption rate and extracellular oxidation by the methods disclosed in the Test Examples below.
3×10^3 cells from A549 cell lines (purchased from ATCC-American Type Culture Collection), which are lung cancer cell lines, were placed on XF96 cell culture plates using RPMI1640 medium, and cultured at 37° C. in a 5% CO2 condition for 16 hours or more for attachment.
After 16 hours, the cells were treated with the drug at six different concentrations between 0 μM and 20 μM. After 24 hours, the existing medium was removed, and XF assay medium (15 mM D-Glucose, 15 mM sodium pyruvate, 4 mM L-Glutamine, pH 7.4) was added. The cells were retreated with the drug, and additionally cultured in Prep station at 37° C. in a non-CO2 condition for 1 hour. During the one-hour culture in the Prep station, a sensor cartridge was placed and calibrated for 20 minutes, and a plate with cells was placed to analyze the OCR. After the analysis was completed, XF96 plate was measured for cell viability using Cyquant assay, which measures the amount of intracellular DNA, in the following method. XF assay medium and the drug were removed, and the cells were placed in a cryogenic refrigerator (−80° C.) for at least 4 hours to be frozen. After the plate was made to be at room temperature, a solution where a lysis buffer and fluorescent GR dye were mixed was placed by 200 μL per well. After 20-minute reaction at room temperature, […] was measured between […] to calculate cell viability. A measured value of a well untreated with the drug was converted to 100% by reflecting cell viability to the OCR value. Concentration of a drug which inhibits the OCR value reflecting cell viability by 50% was calculated.

The subject of test [2] is RENCA mouse kidney cancer cells. Put plainly: Antitumor effect in mouse kidney cancer cells, subcutaneous RENCA implant in BALB/c mice. The test is classed as in vivo. To be noted: for volume of tumor: 10 mg/kg intraperitoneally once a day, BALB/c mice. Here is the method:
RENCA, which are mouse kidney cancer cells, were cultured in RPMI 1640 medium containing 10% FBS and 1% anti-anti at 37° C. and 5% CO2. 8- to 10-week-old BALB/c mice with a body weight range of 18 g to 20 g were subjected to a 7-day acclimation period, and then 1×10^6/0.1 mL of RENCA cells in PBS were subcutaneously implanted on the right side of the backs of the mice. Seven days after implantation, group separation was performed based on the average of tumor volumes when the tumor volumes reached […]. A vehicle control group was intraperitoneally injected with PBS containing 2% DMSO and 2% Tween80, and an Example 62 administration group was intraperitoneally injected at a dose of 10 mg/kg, once a day for 2 weeks. Tumor volume measurements were performed twice weekly using Vemier calipers, and the volume of tumor was calculated by substituting long axis and short axis for 0.5×long axis×short axis^2.

The mark [3] stands for this setting: SK-MEL-28, 0.75 mM glucose, 72 hours, MTT, read-out: SK-MEL-28 0.75 mM glucose Cell viability (IC50 μM).
Where [4] appears, read: SK-MEL-28, 11.1 mM glucose, 72 hours, MTT, read-out: SK-MEL-28 11.1 mM glucose Cell viability (IC50 μM).
Where [5] appears, read: A549 cells, 24 h drug treatment, OCR value reflecting cell viability.
Where [6] appears, read: SK-MEL-28, 72 h, read-out: SK-MEL-28 0.75 mM glucose Cell viability (IC50 μM).
[7] abbreviates: SK-MEL-28, 72 h, read-out: SK-MEL-28 11.1 mM glucose Cell viability (IC50 μM).

As to `Br.c1cc(C[n+]2ccc(N3CCCC3)cc2)cs1` [Example 62, 4-(Pyrrolidin-1-yl)-1-(thiophen-3-ylmethyl)pyridinium bromide], the IC50 in the test on SK-MEL-28 cells (setting [3]) turned out to be 3.1 µM; with SK-MEL-28 cells (setting [4]), 40.1 µM; in test [1] (setting [5]), 1 µM. In addition, the volume of tumor in test [2] (day 7 post tumor implantation (group separation)) was 81 ± 7 mm³; in test [2] (day 9 post tumor implantation), 146 ± 17 mm³; in test [2] (day 12 post tumor implantation), 227 ± 39 mm³; in test [2] (day 14 post tumor implantation), 364 ± 68 mm³; in test [2] (day 16 post tumor implantation), 545 ± 132 mm³; in test [2] (day 20 post tumor implantation), 775 ± 206 mm³. For the same compound, the “tumor growth compared with the vehicle control group” value in test [2] (from the 6th day of administration, 10 mg/kg intraperitoneally once a day for 2 weeks) is given as “remarkably inhibited tumor growth”.
As for `c1csc(C[n+]2ccc(N3CCCC3)cc2)c1` [Example 68, 4-(Pyrrolidin-1-yl)-1-(thiophen-2-ylmethyl)pyridinium chloride], the IC50 in the test with SK-MEL-28 cells (setting [3]) is 1.7 µM; in the test on SK-MEL-28 cells (setting [4]), 38.5 µM; in test [1] (setting [5]), 0.8 µM.
In the same order, the values of `c1c[n+](CC2CC2)ccc1N1CCC1` [Example 70, 4-(Azetidin-1-yl)-1-(cyclopropylmethyl)pyridinium chloride] are 9.4 µM, 49.5 µM and 3.4 µM.
Take `c1cc(C[n+]2ccc(N3CCC3)cc2)cs1` [Example 71, 4-(Azetidin-1-yl)-1-(thiophen-3-ylmethyl)pyridinium bromide]: the IC50 in the test on SK-MEL-28 cells (setting [3]) amounted to 6.8 µM; with SK-MEL-28 cells (setting [4]), 76.4 µM; in test [1] (setting [5]), 3.4 µM.
For `c1c[se]c(C[n+]2ccc(N3CCCC3)cc2)c1` [Example 72, 4-(Pyrrolidin-1-yl)-1-(selenophen-2-ylmethyl)pyridinium chloride], the IC50 in the test on SK-MEL-28 cells (setting [6]) came to 2.6 µM; with SK-MEL-28 cells (setting [7]), 37.2 µM; in test [1] (A549, 24 h), 1 µM.
Consider `Nc1cc[n+](Cc2ccc[se]2)nc1` [Example 75, 4-Amino-1-(selenophen-2-ylmethyl)pyridazin-1-ium chloride], for which the IC50 was determined as 57.7 µM with SK-MEL-28 cells (setting [6]); 239 µM in the test with SK-MEL-28 cells (setting [7]); 18.8 µM in test [1] (A549, 24 h).
Take `Nc1cc[n+](Cc2ccc[se]2)cc1` [Example 76, 4-Amino-1-(selenophen-2-ylmethyl)pyridinium chloride]: the IC50 in the test with SK-MEL-28 cells (setting [6]) turned out to be 14.1 µM; in the test with SK-MEL-28 cells (setting [7]), 114 µM; in test [1] (A549, 24 h), 1.5 µM.
In the case of `Nc1cc[n+](Cc2cccs2)cc1` [Example 77, 4-Amino-1-(thiophen-2-ylmethyl)pyridinium chloride], the IC50 with SK-MEL-28 cells (setting [3]) stood at 15.8 µM; in the test on SK-MEL-28 cells (setting [4]) it was 106 µM; in test [1] (setting [5]) it was 2.4 µM.
Take `c1coc(C[n+]2ccc(N3CCCC3)cc2)c1` [Example 78, 1-(Furan-2-ylmethyl)-4-(pyrrolidin-1-yl)pyridinium chloride]: the IC50 was found to be 3.55 µM with SK-MEL-28 cells (setting [3]), 104 µM in the test with SK-MEL-28 cells (setting [4]) and 2.1 µM in test [1] (setting [5]).
In the case of `Cc1ccc(C[n+]2ccc(N3CCCC3)cc2)s1` [Example 79, 1-((5-Methylthiophen-2-yl)methyl)-4-(pyrrolidin-1-yl)pyridinium chloride], the figures for the IC50 (in the test on SK-MEL-28 cells (setting [3]); in the test with SK-MEL-28 cells (setting [4]); in test [1] (setting [5])) were 1.16 µM, 30.7 µM and 0.8 µM, respectively.
Turning to `Nc1cc(N2CCC2)cc[n+]1Cc1ccsc1` [Example 81], the IC50 with SK-MEL-28 cells (setting [3]) was found to be 4.15 µM; in the test on SK-MEL-28 cells (setting [4]), 58.4 µM; in test [1] (setting [5]), 2.1 µM.

The record behind these values is US20170305861A1, “HETEROARYL COMPOUNDS COMPRISING NITROGEN AND USE THEREOF” (ImmunoMet Therapeutics, Inc, priority 2016, published 2017).
